Values of other authors, collected in patent US20130251697A1, “NOVEL NASAL SPRAY” (priority 2009, published 2013).

System: SIRT1
Settings: life extending genes

SMILES: Oc1ccc(C=Cc2cc(O)cc(O)c2)cc1 [Resveratrol]
- increases genes SIRT1 expression: up to 13 fold
